Read-outs that look alike come from different tables or passages of the source.
Columns and labels:
[1] = Distribution of TQ in brain areas, liver and kidney (HPLC); assay type: in vivo, Wistar rats; conditions: male, Wistar, rat, oral, 60 mg/kg TQ, read-out: TQ distribution, Mean ± SEM
Description: Twenty-eight male Wistar rats with an average weight of 110±10 gm were allocated into four random groups (seven rats/group). Animals were kept in fixed housing circumstances (12 h light/dark cycles) and temperature (25 °C) for three days to acclimatize. The Institutional Animal Ethics Committee approved the protocol for the in vivo study (CU-I-F-28-21).
(§1) The four groups received oral dose day by day for 14 days as follows: The first group: the negative control group, received 1:9; DMSO: Saline. The second group: the free TQ group, received a 60 mg/kg free TQ (3). The third group: The MSNs group received a 60 mg/kg MSNs dose. The fourth group: the LB-MSNs group, received a dose of 60 mg/kg MSNs loaded with TQ and coated with lipids. On day 14, rats were decapitated, and rat brains, liver, and kidneys were dissected for histopathological examination and oxidative stress measurements. The duration time of our experiment and the TQ doses were determined following Sheikhbahaei et al. (2016). 's work.
(§2) On the 14th day of the experiment, all the experimental groups were sacrificed by decapitation. The brains of each animal were taken away after they were removed and put in an ice-cold Petri dish. The brain was sectioned into different regions (hippocampus, cortex, hypothalamus, thalamus, medulla, midbrain, cerebellum, and striatum). Each brain region was weighed and frozen until used in further measurements. Heidolph DIAX 900 was used to homogenize the brain sections weighed in 4 ml of ice-cold PBS (50 mM, pH 7.4). Then, for 15 minutes, the homogenates were separated using a high-speed cooling centrifuge. The centrifuge was set to 8000 RPM and 4°C (VS-18000 M small size, high speed, refrigerated centrifuge, Korea). The pure supernatant was collected and stored at -20°C for further analysis.
TQ was chromatographically identified at room temperature 25 °C. The mobile phase was 50: 30: **20 v/v/v methanol, acetonitrile, and potassium dihydrogen phosphate buffer (20 mM, pH 4.5), isocratically injected at a flow rate of 1 ml/min using the HPLC apparatus's C18 column (25 cm4.6 mm) (YL 9100 HPLC, USA).

Nitric oxide (NO) levels = Nitric oxide (NO) levels in tissues (Griess reaction); assay type: in vivo, Wistar rats; conditions: all the tested organs; oral 60 mg/kg, 14 days
Description: as §1
(§3) On the 14th day of the experiment, all the experimental groups were sacrificed by decapitation. […]
The nitric oxide assay was performed according to the Griess reaction method using biodiagnostic kit No. 25 33, Egypt. […] Absorption was measured using a spectrophotometer at […] (Jenway UV-6420; Barloworld Scientific, Essex, UK). NO levels were quantified as nitrite using the Griess reagent, according to Moshage et al..
(§4) We used The Statistical Package for Social Sciences (SPSS) software (version 19) to analyze the data. The mean and standard error of the results were calculated. […] The percentage difference, which reflects the percent change in value compared to the control, was also assessed. %Difference%D=treatedvalue-controlvalue/controlvalue×100%

[2] = tested on: Lipid peroxidation (MDA) levels; experiment: Lipid peroxidation (MDA) levels in tissues; assay type: in vivo, Wistar rats; conditions: oral 60 mg/kg, 14 days
Description: as §1, §2
MDA was determined as a marker of lipid peroxidation using a method developed by Begona Ruiz-Larrea et al., which entailed detecting the thiobarbituric acid-reactive molecules. […] A spectrophotometer was used to measure the absorbance of the generated compound at 532 nm (Jenway UV-6420; Barloworld Scientific, Essex, UK).
as §4

[3] = tested on: Reduced glutathione (GSH) levels; experiment: Reduced glutathione (GSH) levels in tissues (Ellman's method); assay type: in vivo, Wistar rats; conditions: oral 60 mg/kg, 14 days
Description: as §1, §3
According to Ellman's method, the determination of Reduced Glutathione concentration (GSH) required using Biodiagnostic kit No. GR 25 11, Egypt. Ellman's method measured reduced glutathione levels, as the sulfhydryl group of […] lowers Ellman's reagent and produces 2-Nitro-smercaptobenzoic acid. The yellow-colored nitro-mercaptobenzoic acid was detected at 412 nm using a spectrophotometer (Jenway UV-6420; Barloworld Scientific, Essex, UK).
We used The Statistical Package for Social Sciences (SPSS) software (version 19) to analyze the data. The mean and standard error of the results were calculated. […]

Catalase activity = Catalase activity in tissues (Aebi's protocol); assay type: in vivo, Wistar rats; conditions: oral 60 mg/kg, 14 days
Description: as §1, §3
The catalase activity was determined according to Aebi’s protocol (spectrophotometry) using Biodiagnostic Kit No. CA 25 1, Egypt. […] The chromophore's absorbance at 510 nm is measured using a spectrophotometer (Jenway UV-6420; Barloworld Scientific, Essex, UK).
as §4

Wistar rats = experiment: Histopathological examination of the kidney, liver, and different brain areas (H & E); assay type: in vivo; conditions: H & E x400, oral 60 mg/kg, 14 days
Description: as §1
Each group's brain, liver, and kidney were fixed in a formalin buffered solution (10%) for twenty-four hours. Fixed specimens were rinsed with tap water before dehydrating with methyl, ethyl, and absolute dilutions. Specimens were cleaned in xylene and embedded in paraffin wax for 24 hours in a 56°C hot air oven. Microtome blocks of Paraffin bees wax tissue were sectioned at 8 microns on a slide, collected on glass slides, and removed paraffin stained with hematoxylin and eosin (H & E) stains. A light microscope was used to examine the slides (Zeiss, Germany).

NO and MDA metabolites = tested on: NO and MDA metabolites; set-up: method as in PMID 22309035; conditions: rat brain; 2, 5, or 10 mg/kg doses; cited from earlier work

concentration at 14 days ([1]; Cerebellum): 48 ± 18 ng/g
concentration at 14 days ([1]; Cortex): 25 ± 4 ng/g
concentration at 14 days ([1]; Hippocampus): 2 ± 0.3 ng/g
concentration at 14 days ([1]; Hypothalamus): 10 ± 0.3 ng/g
concentration at 14 days ([1]; Kidney): 112 ± 19 ng/g
concentration at 14 days ([1]; Liver): 201 ± 24 ng/g
concentration at 14 days ([1]; Medulla): 6 ± 1 ng/g
concentration at 14 days ([1]; Midbrain): 7 ± 1 ng/g
concentration at 14 days ([1]; Striatum): 13 ± 1 ng/g
concentration at 14 days ([1]; Thalamus): 4 ± 1 ng/g
catalase activity change compared with negative control group (Catalase activity; all investigated areas except cerebellum, brain, kidney, hippocampus): no significant differences
renal histopathological alterations (Wistar rats): mild histopathological alterations
Compound: CC1=CC(=O)C(C(C)C)=CC1=O [TQ, 2-isopropyl-5-methyl-1,4-benzoquinone]
NO level change compared with negative control group (Nitric oxide (NO) levels): nonsignificant changes
MDA concentration change compared with control ([2]; all tested areas except the medulla): nonsignificant changes
MDA level, significant increase compared with control ([2]; liver): 67.01%
MDA level, significant decrease compared with control ([2]; medulla): 60.95%
GSH level change compared with negative control group ([3]; all investigated areas except the cerebellum): no significant changes
GSH level, significant increase compared with control ([3]; cerebellum): 181.98%
catalase activity, significant difference compared with negative control (direction not given) (Catalase activity; cerebellum): 55.4%
NO and MDA metabolites in the hippocampus (NO and MDA metabolites): decreased

From paper PMC9511777, “Novel lipid-coated mesoporous silica nanoparticles loaded with thymoquinone formulation to increase its bioavailability in the brain and organs of Wistar rats” (BMC Pharmacology & Toxicology, 2022)
